The source of these data is paper PMC5458211, “Mitochondrial VDAC1-based peptides: Attacking oncogenic properties in glioblastoma” (Oncotarget, 2017).

SMILES strings stand for the structures. Non-standard residues stand in square brackets, D forms with d. Residues, ends and D or L forms follow the SMILES beside them.

For one assay, the system named is SH-SY5Y cells. Put plainly: Cell death by PI staining and flow cytometry, SH-SY5Y. The assay is classed as cell-based. Particulars: human neuroblastoma, 6 h at 37°C, serum-free medium, Suppl Fig 1. The protocol: (§1) Cells (6×10^5 /ml) were incubated in 500 μl serum-free medium with the peptide of interest for 6 h at 37°C in the presence of 5% CO2. The cells were then trypsinized, centrifuged (1500xg, 5 min), washed with PBS and analyzed for cell death using propidium iodide (PI) staining and flow cytometer (Beckton-Dickinson, San Jose, CA) and BD CellQuest Pro software. Apoptotic cell death was also analyzed by PI and annexin V-FITC staining, and by acridine orange and ethidium bromide staining and light microscopy (Olympus LX2-KSP). […]
(§2) was subsequently visualized by incubating with DAB. […]
(§3) Supplementary Figure 1: VDAC1-based peptides induce dramatic cell death of several brain tumor-derived cell […]
(§4) Ter-Antp (●) peptide in serum-free appropriate growth medium for 6 h at 37°C. Cells were harvested, washed twice with PBS and cell death was analyzed by propidium iodide (PI) staining and ﬂow cytometry. D. Summary of IC50 values (μM) for the peptides with the indicated […]
(§5) (also on this page, place not known: www.impactjournals.com/oncotarget/ Oncotarget, Materials 2017 V , Supplementary) […]
On the technique in general: Flow cytometry measures light scatter and fluorescence of single cells or particles in a stream.

A further assay concerns Neuro-2a cells. Put plainly: Cell death by PI staining and flow cytometry, Neuro-2a. The assay is classed as cell-based. The note with it: mouse neuroblastoma, 6 h at 37°C, serum-free medium, Suppl Fig 1. The protocol:
as §1
overnight at 4°C with primary antibodies (sources and After rinsing in water, the sections were counter-stained dilutions used detailed in Table S2) and washed with hematoxylin, and mounted with mounting medium.
PBST. For IHC, endogenous peroxidase activity was Finally, the sections were observed under a microscope blocked by incubating the sections in 3% H2O2 for 15 min. (Leica DM2500) and images were collected at 20× After washing thoroughly with PBST, the sections were magnification with the same light intensity and exposure incubated with the appropriate secondary antibodies for 2 time. Non-specific control experiments were carried out h. […]
Ter-Antp (●) peptide in serum-free appropriate growth medium for 6 h at 37°C. Cells were harvested, washed twice with PBS and cell death was analyzed by propidium iodide (PI) staining and ﬂow cytometry. […]

The subject of another assay is GL-261MG cells. Put plainly: Cell death by PI staining and flow cytometry, GL-261MG. The assay is classed as cell-based. Particulars: mouse glioblastoma, 6 h at 37°C, serum-free medium, Suppl Fig 1. The protocol: as §1, §2, §3, §4, §5
The test system of assay [1] is metabolic enzymes and transporters. Put plainly: Expression of energy- and metabolism-related proteins in treated tumors (IHC, immunoblot). Format: in vivo, human U-87MG in nude mice. The note with it: for VDAC1 staining: treated tumors vs strong staining in PBS/DMSO. The text has this: Figure 5 VDAC1-based peptide-treated tumors show marked changes in the expression of energy- and metabolism-related enzymes Dissected tumors were subjected to immunohistochemistry as described in Experimental Procedures. A, B. Representative sections from PBS/DMSO- and Tf-D-LP4-TTs were IHC stained for Glut-1, HK-I, HK-II, GAPDH, LDH, VDAC1, CS, Complex IVc and ATP synthase 5a are presented. Sections were also hematoxylin-stained and visualized by microscopy. C. Tissue lysates obtained from controls and several Tf-D-LP4-TTs were immunoblotted for HK-I, HK-II, VDAC1, GAPDH, LDH, CS, and ATP synthase 5a. D. Quantitative analysis of immunoblots is shown (n=2-4).
Formalin-fixed, paraffin-embedded sections of control and peptide-TTs were hematoxylin-eosin stained, probed with appropriate antibodies via IHC staining or immunoblotting of cells and tissue extracts. […]
10 ml of aqueous solution containing 1% PVA (w/v). The software. These experimental protocols were approved by mixtures were stirred continuously at room temperature the Institutional Animal Care and Use Committee of Ben-until complete evaporation of the organic solvent. The Gurion University. […]
HBSS solution. Cells or tumor tissue were lysed using lysis buffer (50 mM Tris-HCl, pH 7.5, 150 mM NaCl, 1
Xenograft and intracranial-orthotopic mouse mM EDTA, 1.5 mM MgCl2, 10% glycerol, 1% Triton models X-100, supplemented with a protease inhibitor cocktail
(Calbiochem, UK). Cell lysates were then centrifuged at U-87MG glioblastoma cells (3 x106) were inoculated 600xg (10 min at 4°C) and samples (10-40 μg of protein) s.c. into the hind leg ﬂanks of athymic eight-week old were subjected to SDS-PAGE and immunoblotting male nude mice (Envigo). Thirteen days post-inoculation, using various primary antibodies (sources and dilutions tumor volume was measured and calculated (100-130 as detailed in supplementary Table 2), followed by mm3) and mice were randomized into three groups (5 the appropriate HRP-conjugated secondary antibodies mice/group). Each treatment substance was injected into (i.e., anti-mouse, anti-rabbit or anti-goat). Blots the established s,c. tumors using PBS containing 0.26% were developed using enhanced chemiluminescence DMSO or peptide in PBS, 0.26% DMSO/20 μM). The (Biological Industries). Band intensities were analyzed xenografts were injected 20 µl per tumor (2 points) every by densitometry using Multi Gauge software (Fujifilm) two days. Beginning on the day of inoculation, mouse and the values were normalized to the intensities of the weight and tumor volume were monitored twice a week appropriate β-actin signal that served as a loading control. for a period of 23 days using a digital caliper. At the end of the experiments, the mice were sacrificed, tumors were IHC of tumor tissue sections excised and ex vivo weight was determined. Half of each tumor was either fixed in 4% buffered formaldehyde, IHC staining was performed on 5 μm-thick paraffin-embedded and processed for IHC or frozen in formalin-fixed and paraffin-embedded tumor tissue liquid nitrogen for later immunoblot analysis. sections. The sections were deparaffinized by placing To generate an intracranial-orthotopic mouse model, the slides at 60°C for 1 h and using xylene. […]
(Stoelting, Wood Dale, IL). A middle incision was made c, cytochrome c oxidase subunit IVc, GAPDH, Glut1, on the skull and a burr hole was introduced 0.5 mm HK-II, Klf4, LDH, Nestin, NGFR, P53, SMAC/Diablo, anterior to the bregma and 2.5 mm lateral to the midline Sox2, S100b, VDAC1) was performed in 0.01 M citrate using a drill (Stoelting). A 31-gauge needle loaded with buffer (pH 6.0). For CD31, HK-I and Ki-67, antigen 10 µL PBS was used to deliver tumor cells. The needle retrieval was performed in 10 mM Tris-EDTA (pH 9) and tip was inserted into the brain 3 mm deep, relative to the 0.5 M Tris (pH 10), for 30 minutes each at 95-98°C. After […]

In the case of `CC[C@@H](C)[C@@H](NC(=O)[C@@H](CCCCN)NC(=O)[C@H](NC(=O)[C@@H](CCC(N)=O)NC(=O)[C@@H](CCCNC(=N)N)NC(=O)[C@@H](CC(C)C)NC(=O)CNC(=O)[C@@H](Cc1ccccc1)NC(=O)CNC(=O)[C@@H](Cc1ccc(O)cc1)NC(=O)CNC(=O)[C@@H](CCCCN)NC(=O)[C@H](NC(=O)[C@@H](Cc1ccccc1)NC(=O)[C@H](NC(=O)[C@@H](CC(=O)O)NC(=O)[C@H](N)CCCNC(=N)N)C(C)C)[C@H](C)O)[C@H](C)CC)C(=O)N[C@H](Cc1c[nH]c2ccccc12)C(=O)N[C@H](Cc1ccccc1)C(=O)N[C@H](CCC(N)=O)C(=O)N[C@H](CC(N)=O)C(=O)N[C@H](CCCNC(=N)N)C(=O)N[C@H](CCCNC(=N)N)C(=O)N[C@H](CCSC)C(=O)N[C@H](CCCCN)C(=O)N[C@H](Cc1c[nH]c2ccccc12)C(=O)N[C@H](CCCCN)C(=O)N[C@H](CCCCN)C(=O)O` [D-ΔN-Ter-Antp] (H-[dR][dD][dV][dF][dT][dK]G[dY]G[dF]G[dL][dR][dQ][dI][dK][dI][dW][dF][dQ][dN][dR][dR][dM][dK][dW][dK][dK]-OH; N-terminus and C-terminus assumed), the “cell death, SH-SY5Y” value in the assay on SH-SY5Y cells was “effectively induce cell death”. For the same compound, in the assay with Neuro-2a cells, the “cell death, Neuro-2a” value was “effectively induce cell death”. The “cell death, GL-261MG” value in the assay on GL-261MG cells is recorded as “effectively induce cell death”. In addition, the VDAC1 staining entry in assay [1] is on record as “only very weak staining”.

Take `CC[C@H](C)[C@H](NC(=O)[C@H](C)NC(=O)[C@@H](N)Cc1c[nH]cn1)C(=O)N[C@@H](Cc1ccc(O)cc1)C(=O)N1CCC[C@H]1C(=O)N[C@@H](CCCNC(=N)N)C(=O)N[C@@H](Cc1c[nH]cn1)C(=O)N[C@@H](CO)C(=O)N[C@@H](Cc1c[nH]c2ccccc12)C(=O)N[C@H](C(=O)N[C@@H](Cc1c[nH]c2ccccc12)C(=O)N[C@@H](CCC(=O)O)C(=O)N[C@H](CCCCN)C(=O)N[C@H](CCCCN)C(=O)N[C@H](CC(C)C)C(=O)N[C@H](CCC(=O)O)C(=O)N[C@@H](C(=O)N[C@H](C)C(=O)N[C@@H](C(=O)N[C@H](CC(N)=O)C(=O)N[C@H](CC(C)C)C(=O)N[C@H](C)C(=O)N[C@H](Cc1c[nH]c2ccccc12)C(=O)N[C@@H](C(=O)N[C@H](C)C(=O)NCC(=O)N[C@H](CC(N)=O)C(=O)N[C@H](CO)C(=O)N[C@H](CC(N)=O)C(=O)N[C@@H](CCCCN)C(=O)N[C@@H](Cc1c[nH]c2ccccc12)C(=O)N[C@H](C(=O)N[C@@H](Cc1c[nH]c2ccccc12)C(=O)N[C@@H](CCCCN)C(=O)O)[C@@H](C)O)[C@H](C)O)C(C)C)[C@H](C)O)[C@@H](C)O` [Tf-D-LP4]: the “cell death, SH-SY5Y” value with SH-SY5Y cells is on record as “effectively induce cell death”. Also, the “cell death, Neuro-2a” value in the assay with Neuro-2a cells is recorded as “effectively induce cell death”. For the same compound, the “cell death, GL-261MG” value with GL-261MG cells is on record as “effectively induce cell death”. In addition, in assay [1] (treated tumors vs PBS/DMSO), the “ATP synthase subunit 5a expression” value was “markedly lower”, the GAPDH level result is listed as “dramatically lower”, the Glut-1 level result was “dramatically lower” and the HK-I level result is “dramatically lower”. Besides, in assay [1] (treated tumors vs PBS/DMSO), the HK-II level entry was “dramatically lower”, the LDH level entry was “dramatically lower”, the “citrate synthase (CS) expression” value is “markedly lower” and the “complex IVc expression” value is “markedly lower”. The VDAC1 staining result in assay [1] is on record as “only very weak staining”.
